Laboratory results as given in US20250000834A1, “COMPOSITIONS AND METHODS FOR TARGETING GPCR FOR THE PREVENTION AND TREATMENT OF PAIN” (Duke University, priority 2021, published 2025).

Experiments:
hGPR37L1 [1] = biological target: T1, hGPR37L1 (Homo sapiens, UniProt O60883); assay: cAMP BRET assay in HEK293 cells co-transfected with GPR37L1 and cAMP BRET cDNAs; type: cell-based; settings: 10 nM
T1 sequence (O60883 26-481): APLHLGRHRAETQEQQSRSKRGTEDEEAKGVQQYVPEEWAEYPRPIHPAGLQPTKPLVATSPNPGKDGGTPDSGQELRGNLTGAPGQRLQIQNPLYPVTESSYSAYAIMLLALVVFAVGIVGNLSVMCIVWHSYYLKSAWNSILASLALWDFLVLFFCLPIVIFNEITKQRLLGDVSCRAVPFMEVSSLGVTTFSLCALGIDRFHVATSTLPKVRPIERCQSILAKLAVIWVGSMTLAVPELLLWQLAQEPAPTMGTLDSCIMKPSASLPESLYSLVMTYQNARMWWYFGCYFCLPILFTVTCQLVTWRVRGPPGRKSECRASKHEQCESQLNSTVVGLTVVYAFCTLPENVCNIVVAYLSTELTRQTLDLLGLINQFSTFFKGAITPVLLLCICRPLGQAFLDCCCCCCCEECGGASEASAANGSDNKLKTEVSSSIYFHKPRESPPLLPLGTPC
Procedure: cAMP BRET assay: To detect cAMP change after GPCR37L1 activation, we transfected a Nano-lantern cAMP plasmid (1 μg) and human GPR37L1-tango plasmid (1 μg) into HEK-293 cells. BRET activity was measured upon the addition of 100 μl/well for a final concentration of 10 μM Coelenterazine (Santa Cruz Biotechnology, Dallas, TX), 10 nM MaR1, DHA or vehicle, and 100 μM forskolin (Enzo Life Sciences (Farmingdale, NY), #BML-CN100). The luminescent activity was measured using an Infinite F200 Pro Illuminometer (Tecan Trading AG, Switzerland). The luminescent activity was normalized to basal signal levels.
Eight different concentrations of compounds ranging from 0.1 nM to 100 nM were tested.

hGPR37L1 [2] = biological target: T1, hGPR37L1; assay: Lipid overlay assay with lysates of hGPR37L1-transfected HEK293 cells; type: binding; set-up: expressed in transfected cells; host or cells: HEK293 Flp-In cells
Procedure: Lipids overlay assay: Lipids membrane coating and protein overlay assay were performed as previously described (S. Dowler, et al., Protein lipid overlay assay. Sci STKE 2002, p 16 (2002)). […] Compound-coated membranes were dried and blocked with 1% BSA. The coated membranes were incubated with lysates obtained from hGPR37L1-transfected HEK293 cells or mouse DRG lysate from WT or Gpr37l1 KO mice for 2 hours, followed by detection using an anti-GRP37L1 antibody (Bioss (Woburn, MA), Rabbit, 1:1000, #bs-15390R) or anti-flag antibody (Cell Signaling Technology (Danvers, MA), Rabbit, 1:1000, #14793). Blots were further incubated with an HRP-conjugated secondary anti-rabbit antibody (Jackson ImmunoResearch Laboratories (West Grove, PA), raised in donkey, 1:5000), developed in ECL solution (Pierce Biotechnology, Waltham, MA), and the signal was visualized from ChemiDoc XRS (Bio-Rad, Hercules, CA). The signal Intensity was quantified by Image J software (NIH).
A lipid overlay assay was conducted to reveal any possible binding of these lipid mediators to GPR37L1. hGPR37L1 was FLAG-tagged and expressed in HEK293 cells after hGPR37L1 cDNA transfection; the expressed protein detectable by anti-FLAG antibody (schematic not shown; see U.S. Prov. No. 63/270,198, FIG. 3A).

[3] = system: neuron-glia mixed cultures from DRG; assay: IL-1β release in SGC-neuron co-cultures from DRG (ELISA); type: cell-based, mouse; settings: 100 nM, cells from WT mice, 1 μM paclitaxel 24 h
Procedure: SGC and neuron co-culture: DRG were collected from wild-type (WT) or knock-out (KO) mice (8 weeks male) and incubated in 1 mg/ml Collagenase/Dispase (Roche Diagnostics, Madison, WI, USA) at 37° C. for 60 min, with agitation at 100 revolutions per minute (RPM) and then followed by incubation in 0.05% trypsin/EDTA for 10 min. The digestion enzymes were prepared in Dulbecco's modified Eagle medium/F12 with GlutaMAX (ThermoFisher, Waltham, MA). After incubation of 0.1% trypsin inhibitor and centrifugation (300 G), the cell pellet was gently triturated in a neurobasal medium containing […]. Dissociated DRG cells were seeded on non-coated culture dishes for 4 hrs. SGC and neurons were included for co-culture by hand-shaking of the culture flasks gently for 5 to 10 min and then resuspended by replacing with a new neurobasal medium. The attached glial-like cells were cultured in the DMEM/F12 medium containing 10% fetal bovine serum and 1% streptomycin/penicillin to promote cell growth and inhibition of differentiation. After 2 to 6 days, the glial-like cells were differentiated by application of the serum-free neural basal medium. […]

inhibition of forskolin-induced cAMP production (hGPR37L1 [1]): significantly inhibited
binding signal in lipid overlay assay (hGPR37L1 [2]; cell lysate from control mock transfection): no positive signal
binding signal in lipid overlay assay (hGPR37L1 [2]; lysate of hGPR37L1 (FLAG) transfected HEK293 cells, anti-FLAG detection): specific binding signal
Structure (SMILES): CC/C=C\C/C=C\C[C@H](O)\C=C/C=C/C=C/[C@H](O)C/C=C\CCC(=O)O [MaR1, Maresin 1]
effect on paclitaxel-induced IL-1β secretion [3]: blocked
